Measured values: US11926596B2, “Inhibitors of Rho associated coiled-coil containing protein kinase” (KADMON CORPORATION, LLC, priority 2017, dated 2024)
Where two headings read alike, the source gives them in different places.

Key:
[1] = target: T1, recombinant ROCK2 (amino acids 1-552) (Homo sapiens, UniProt O75116); test: Z'-lyte kinase assay, ROCK2; type: biochemical
T1 construct: ROCK2 (amino acids 1-552) proteins were purchased from ThermoFisher Scientific; purchased ThermoFisher Scientific
T1 sequence (O75116 1-552): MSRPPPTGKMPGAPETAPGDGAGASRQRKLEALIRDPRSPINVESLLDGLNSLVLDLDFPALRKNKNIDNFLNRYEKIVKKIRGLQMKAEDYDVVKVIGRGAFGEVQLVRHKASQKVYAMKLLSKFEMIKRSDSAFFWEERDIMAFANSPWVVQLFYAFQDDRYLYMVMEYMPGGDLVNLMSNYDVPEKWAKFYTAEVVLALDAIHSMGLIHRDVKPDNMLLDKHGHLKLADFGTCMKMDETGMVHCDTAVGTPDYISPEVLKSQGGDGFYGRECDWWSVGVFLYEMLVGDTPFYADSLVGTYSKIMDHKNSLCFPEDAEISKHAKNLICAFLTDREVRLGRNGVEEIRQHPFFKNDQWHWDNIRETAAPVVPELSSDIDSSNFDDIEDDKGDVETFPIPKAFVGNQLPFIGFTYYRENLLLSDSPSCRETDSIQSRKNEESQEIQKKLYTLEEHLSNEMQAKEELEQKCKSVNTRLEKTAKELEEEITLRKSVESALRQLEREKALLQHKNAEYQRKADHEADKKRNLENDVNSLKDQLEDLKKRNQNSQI

[2] = target: T2, recombinant ROCK1 (amino acids 1-535) (Homo sapiens, UniProt Q13464); test: Z'-lyte kinase assay, ROCK1; type: biochemical
T2 construct: recombinant ROCK1 (amino acids 1-535) and ROCK2; purchased ThermoFisher Scientific
T2 sequence (Q13464 1-535): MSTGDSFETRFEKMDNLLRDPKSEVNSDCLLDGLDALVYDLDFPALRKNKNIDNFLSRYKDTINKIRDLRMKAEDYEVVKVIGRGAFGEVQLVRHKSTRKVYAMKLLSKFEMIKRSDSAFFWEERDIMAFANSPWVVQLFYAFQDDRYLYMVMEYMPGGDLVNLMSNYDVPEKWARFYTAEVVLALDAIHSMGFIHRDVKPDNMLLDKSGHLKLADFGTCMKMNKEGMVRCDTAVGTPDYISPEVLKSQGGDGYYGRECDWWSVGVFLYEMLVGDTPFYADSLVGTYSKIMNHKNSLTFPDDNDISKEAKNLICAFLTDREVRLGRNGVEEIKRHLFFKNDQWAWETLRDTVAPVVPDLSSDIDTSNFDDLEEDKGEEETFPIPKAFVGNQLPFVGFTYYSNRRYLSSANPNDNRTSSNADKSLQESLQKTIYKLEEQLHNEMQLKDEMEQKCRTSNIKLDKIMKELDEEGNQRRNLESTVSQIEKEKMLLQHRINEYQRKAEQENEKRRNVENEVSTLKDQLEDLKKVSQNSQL

[3] = tested on: phospho-myosin light chains (ppMlc, Thr18/Ser19) in A7R5 cells; test: A7R5 in-cell ELISA, phospho-myosin light chain; type: cell-based, rat; conditions: Rattus norvegicus
[4] = tested on: luciferase reporter driven by the human ACTA2 gene promoter in NIH3T3 cells; test: NIH3T3 cells Acta2-promoter driven-luciferase assay; type: cell-based; conditions: plus TGF 1, 24 hr, read-out: NIH3T3, Acta2-luc, IC50
Procedure: NIH3T3 cells Acta2-promoter driven-luciferase assay: A NIH3T3 cell line stably expressing a luciferase reporter driven by the human ACTA2 gene promoter (−1000-1 bp) was established (NIH3T3-Acta2-luciferase). The cells were plated to confluence and treated with the test compounds plus TGF 1 for 24 hr. Cells were then lysed and luciferase activity was measured using the LightSwitch luciferase kit from Active Motif.

[5] = tested on: ROCK target MYPT1 phosphorylation in HCT116 ROCK1KO and ROCK2KO cells; test: pMypt (T853) western blotting in HCT116 ROCK1KO and ROCK2KO cells; type: cell-based; conditions: 110 nM, 90 min
Procedure: FIG. 2. […] HCT116 cells with either a ROCK1 or ROCK2 knockout (ROCK1KO and ROCK2KO, respectively) were treated with the inhibitor for 90 min and pMypt (T853) levels were visualized by western blotting.
A CRISPR/CAS9 system was used to create HCT116 cells containing a knock out for either ROCK1 or ROCK2. The ROCK1KO and ROCK2KO cells were treated with the Example 2 compound for 90 min and pMypt (T853) levels were visualized by western blotting.

[6] = tested on: Human oligodendrocyte/neuron progenitor cells; test: Human oligodendrocyte/neuron progenitor cell differentiation (Nestin/MAP2 staining); type: cell-based; conditions: cultured 2 & 14 days with or without inhibitor
Procedure: FIG. 3. Human oligodendrocyte/neuron progenitor cells were cultured in vitro with or without ROCK inhibitor (Example 2 compound) for 2 & 14 days. Nestin and MAP2 proteins were visualized by staining with commercial antibodies to identify different stages of neuronal cell differentiation.
Human oligodendrocyte/neuron progenitor cells were cultured in vitro with or without ROCK inhibitor for 2 & 14 days. Nestin and MAP2 proteins were visualized by staining with commercial antibodies to identify different stages of neuronal cell differentiation.

[7] = tested on: rat oligodendrocytes with rat dorsal root ganglia (DRG) explants; test: Rat oligodendrocytes with rat dorsal root ganglia (DRG) explants co-culture; type: cell-based
From the text: At the same time, the ROCK inhibitor also facilitated axonal support of oligodentrocye by organized manner, which was visualized by staining the mature oligodendrocyte marker MBP.

[8] = Mouse pharmacokinetic study, plasma and brain distribution 2 hours after dosing; type: in vivo; conditions: for concentration at 2 h / Kp at 2 h: 2 hours post-dose; for Kp at 2 h: brain/plasma, read-out: Brain/Plasma Ratio
Procedure: In a mouse pharmacokinetic study, 2 hours after dosing, animal tissues were harvested to determine the compound distribution.

## CNC(C(=O)Nc1ccc2[nH]ncc2c1)c1ccccc1 (centres unmarked) [Example 2, N-(1H-indazol-5-yl)-2-(methylamino)-2-phenylacetamide]
[1]
  IC50: 21 nM
[1]; 3 μM, read-out: ROCK2 % inh
  inhibition at 3 µM: 98.7%
[2]
  IC50: 25 nM
[2]; 3 μM, read-out: ROCK1 % inh
  inhibition at 3 µM: 98.8%
[3]; 1.5 h, A7R5 cells, 90 min, read-out: pMLC IC50 A7R5
  IC50: 304 nM
[3]; A7R5 cells, ppMlc (T18/S19), 9 points 2 fold serial dilution, read-out: ppMIc IC50
  IC50: 304 nM
[3]; pMLC in A7R5 cells, read-out: cellular ROCK inhibition IC50
  IC50: 252 nM
[4]
  IC50: 885 nM
[5]
  pMypt (T853) levels, MYPT1 phosphorylation: efficiently blocked
[6]
  mature neuronal cell marker MAP2 expression: significantly facilitated
  neurite outgrowth: improved
[7]
  axonal support of oligodendrocyte (MBP / neurofilament staining): facilitated
  cytoskeletal organization / myelin segments (neurofilament staining): producing many shorter ordered myelin segments
[8]; 2 hours after dosing
  BBB penetrant property: excellent
[8]; brain, IV 10 mg base/kg, read-out: Brain Concentration
  concentration at 2 h: 699 ng/g
[8]; brain, PO 10 mg base/kg, read-out: Brain Concentration
  concentration at 2 h: 700 ng/g
[8]; brain, PO 30 mg base/kg, read-out: Brain Concentration
  concentration at 2 h: 2860 ng/g
[8]; brain, PO 100 mg base/kg, read-out: Brain Concentration
  concentration at 2 h: 19400 ng/g
[8]; IV 10 mg base/kg
  Kp at 2 h: 3.31
[8]; PO 10 mg base/kg
  Kp at 2 h: 1.73
[8]; PO 30 mg base/kg
  Kp at 2 h: 2.04
[8]; PO 100 mg base/kg
  Kp at 2 h: 2.08
[8]; plasma, IV 10 mg base/kg, read-out: Plasma Concentration
  concentration at 2 h: 211 ng/mL
[8]; plasma, PO 10 mg base/kg, read-out: Plasma Concentration
  concentration at 2 h: 405 ng/mL
[8]; plasma, PO 30 mg base/kg, read-out: Plasma Concentration
  concentration at 2 h: 1400 ng/mL
[8]; plasma, PO 100 mg base/kg, read-out: Plasma Concentration
  concentration at 2 h: 9290 ng/mL
